Columns and labels:
Ent. faecalis ATCC 29212 = test: MIC by agar incorporation method, E.faecalis 29212; format: cell-based, Enterococcus faecalis; set-up: unit not given here; conditions: Mueller Hinton agar, 10^4 CFU/spot, 18 hours
Text: 3) Ent. faecalis ATCC 29212—Enterococcus faecalis ATCC 29212

MRSA 33 = test: MIC by agar incorporation method, MRSA 33; format: cell-based, Methicillin Resistant Staphylococcus aureus; set-up: unit not given here; conditions: Mueller Hinton agar, 10^4 CFU/spot, 24 hours
Strep. pne. ATCC 6303 = test: MIC by agar incorporation method, S. pneum 6303; format: cell-based, Streptococcus pneumoniae; conditions: Mueller Hinton agar, 10^4 CFU/spot, 18 hours
Text: 5) Strep. pne. ATCC 6303—Streptococcus pneumoniae ATCC 6303

MRSA 562 = test: MIC by agar incorporation method, MRSA 562; format: cell-based, Methicillin Resistant Staphylococcus aureus; set-up: unit not given here; conditions: Mueller Hinton agar, 10^4 CFU/spot, 24 hours
S. pneum AB 34 = test: MIC by agar incorporation method, S. pneum AB 34; format: cell-based, Streptococcus pneumoniae; set-up: unit not given here; conditions: Mueller Hinton agar, 10^4 CFU/spot, 18 hours
VRE 6A = test: MIC by agar incorporation method, VRE 6A; format: cell-based, Enterococcus faecium; set-up: unit not given here; conditions: Mueller Hinton agar, 10^4 CFU/spot, 18 hours
Text: 4) Ent. faecium […]—Enterococcus faecium 6A Van®, Cipro®

S.aureus ATCC 25923 = test: MIC by agar incorporation method, S.aureus 25923; format: cell-based, Staphylococus aureus; set-up: unit not given here; conditions: Mueller Hinton agar, 10^4 CFU/spot, 18 hours
Strep.pyog. ATCC 19615 = test: MIC by agar incorporation method, S.pyogenes 19615; format: cell-based, Streptococcus pyogenes; set-up: unit not given here; conditions: Mueller Hinton agar, 10^4 CFU/spot, 18 hours
Text: 6) Strep.pyog. ATCC 19615—Streptococcus pyogenes

MRSA 15187 = test: MIC by agar incorporation method, MRSA 15187; format: cell-based, Methicillin Resistant Staphylococcus aureus; set-up: unit not given here; conditions: Mueller Hinton agar, 10^4 CFU/spot, 24 hours
Text: 2) MRSA 15187—Methicillin Resistant Staphylococcus aureus

Structure (SMILES) | In Vitro (MIC) E.faecalis 29212 (Ent. faecalis ATCC 29212) | In Vitro (MIC) MRSA 33 (MRSA 33) | In Vitro (MIC) S. pneum 6303 (Strep. pne. ATCC 6303) [µg/mL] | In Vitro (MIC) MRSA 562 (MRSA 562) | In Vitro (MIC) S. pneum AB 34 (S. pneum AB 34) | In Vitro (MIC) VRE 6A (VRE 6A) | In Vitro (MIC) S.aureus 25923 (S.aureus ATCC 25923) | In Vitro (MIC) S.pyogenes 19615 (Strep.pyog. ATCC 19615) | In Vitro (MIC) MRSA 15187 (MRSA 15187)
CCN(Cc1ccc([N+](=O)[O-])s1)C1CCN(c2ccc(N3C[C@H](CNC(C)=O)OC3=O)cc2F)CC1 [Compound No. 83, (S)-N-[[3-[3-Fluoro-4-[4-{N-ethyl-N-2-thiophenyl-(5-nitro)methyl}-aminopiperidine-1-yl]phenyl]-2-oxo-5-oxazolidinyl]methyl]acetamide] | 4 | 4 | 8 | 4 | 8 | 4 | 4 | 8 | 4
CC(=O)NC[C@H]1CN(c2ccc(N3CCN(C(=O)c4ccc(N)s4)CC3)c(F)c2)C(=O)O1 [Compound No. 34, (S)-N-[[3-[3-Fluoro-4-[N-1-[4-{2-thiophenoyl-(5-amino)}]piperazinyl]phenyl]-2-oxo-5-oxazolidinyl]methyl]acetamide] | 4 | 8 | 4 | 4 | 4 | 4 | 8 | 1 | 8
CC(=O)NC[C@H]1CN(c2ccc(N3CCN(Cc4cc([N+](=O)[O-])cn4C)CC3)c(F)c2)C(=O)O1 [Compound No. 11] | 4 | 4 | 2 | 4 | 4 | 4 | 4 | 2 | 4
CC(Cl)C(=O)NC[C@H]1CN(c2ccc(N3CCN(Cc4cc(Br)c([N+](=O)[O-])s4)CC3)c(F)c2)C(=O)O1 (stereo partly drawn) [Compound No. 51] | 8 | 8 | 16 | 8 | 16 | 8 | 8 | 16 | 8
CC(=O)NC[C@H]1CN(c2ccc(N3CCN(Cc4ccc([N+](=O)[O-])o4)CC3C)c(F)c2)C(=O)O1 (stereo partly drawn) [Compound No. 58, (S)-N-[[3-[3-Fluoro-4-[N-1-[2-methyl-4-{2-furyl(5-nitro)methyl}]-piperazinyl]phenyl]-2-oxo-5-oxazolidinyl]methyl]acetamide] | 4 | 4 | 8 | 2 | 16 | 4 | 4 | 4 | 4
CC(=O)NC[C@H]1CN(c2ccc(N3CCN(Cc4oc([N+](=O)[O-])cc4C)CC3)c(F)c2)C(=O)O1 [Compound No. 5] | 2 | 0.254 | 1 | 2 | 1 | 4 | 2 | 0.5 | 2
CC(=O)NC[C@H]1CN(c2ccc(N3CCN(C(=O)c4ccc([N+](=O)[O-])s4)CC3C)c(F)c2)C(=O)O1 (stereo partly drawn) [Compound No. 60, (S)-N-[[3-[3-Fluoro-4-[N-1-[2-methyl-4-{2-thiophenoyl-(5-nitro)}]-piperazinyl]phenyl]-2-oxo-5-oxazolidinyl]methyl]acetamide] | 1 | <0.125 | 4 | <0.125 | 4 | 1 | 0.25 | 0.5 | <0.125
COc1ccc(CN2CCN(c3ccc(N4C[C@H](CNC(C)=O)OC4=O)cc3F)CC2)o1 [Compound No. 15, (S)-N-[[3-[3-Fluoro-4-[N-1-[4-{2-furyl-(5-methoxy)methyl}]piperazinyl]phenyl]-2-oxo-5-oxazolidinyl]methyl]acetamide] | 4 | 4 | 2 | 4 | 2 | 4 | 4 | 2 | 4
CC(=O)NC[C@H]1CN(c2ccc(N3CCN(C(=O)c4occc4C)CC3)c(F)c2)C(=O)O1 [Compound No. 36, (S)-N-[[3-[3-Fluoro-4-[N-1-[4-{2-furoyl-(3-methyl)}]piperazinyl]phenyl]-2-oxo-5-oxazolidinyl]methyl]acetamide] | 2 | 2 | 0.5 | 2 | 1 | 1 | 2 | 1 | 2
CC(=O)NC[C@H]1CN(c2ccc(N3CCN(Cc4cc(Br)c([N+](=O)[O-])o4)CC3)c(F)c2)C(=O)O1 [Compound No. 25, (S)-N-[[3-[3-Fluoro-4[N-1-[4-{2-Furyl-4-bromo-(nitro)methyl}]piperazinyl]-phenyl]-2-oxo-5-oxazolidinyl]methyl]acetamide] | 2 | 2 | 2 | 2 | 2 | 2 | 2 | 0.5 | 1
CC(=O)NC[C@H]1CN(c2ccc(N3CCN(Cc4ccoc4[N+](=O)[O-])CC3)c(F)c2)C(=O)O1 [Compound No. 18, (S)-N-[[3-[3-Fluoro-4-[N-1[4-{3-furyl(2-nitro)methyl}]piperazinyl]phenyl]-2-oxo-5-oxazolidinyl]methyl]acetamide] | 4 | 4 | 1 | 4 | 2 | 4 | 8 | 1 | 4
CC(=O)NC[C@H]1CN(c2ccc(N3CCC(CN(C)Cc4ccc([N+](=O)[O-])o4)CC3)c(F)c2)C(=O)O1 [Compound No. 93] | 2 | 1 | 4 | 1 | 4 | 4 | 2 | 1 | 1
CC(=O)NC[C@H]1CN(c2ccc(N3CCC(CN(C)Cc4ccc([N+](=O)[O-])o4)CC3)c(F)c2)C(=O)O1 [Compound No. 95] | <0.25 | 1 | – | 0.5 | – | 0.5 | 1 | – | 1

— patent US20040242591A1, “Oxazolidinone derivatives as pontential antimicrobials” (priority 2001, published 2004)
